# Reference: US20120190752A1, “EXO-S-MECAMYLAMINE METHOD, USE, AND COMPOUND FOR TREATMENT” (Targacept Inc., priority 2009, published 2012)
# System: subjects with major depressive disorder (MDD) who were inadequate responders to citalopram
# Assay: Individual MADRS factor (subscale) scores, exploratory analysis
# Assay type: in vivo, human
# Method: In more detail, a multi-center double-blind, randomized, placebo-controlled, parallel group, flexible dose titration study of TC-5214 as adjunctive therapy in subjects with major depressive disorder (MDD) who were inadequate responders to citalopram was conducted in centers in the US and India. The study consisted of a screening period, baseline/washout period, open-label phase, double-blind phase, and a follow-up visit. Subject participation in the study could continue for up to 16 weeks of treatment. Following a washout period of up to 28 days for other antidepressants, subjects with MDD and a MADRS total score >/=28 and a Clinical Global Impression-Severity (CGI-S) score >/=4 were enrolled on Day 1 into an open-label citalopram-only phase of the study. This phase lasted 8 weeks, with citalopram (CIT) dose increased from a once-daily dose of 20 mg (Day 1 through Week 4) to 40 mg (Week 4 through Week 8). A total of 579 subjects entered the open-label citalopram phase. At Week 8, subjects who tolerated 40 mg CIT, but whose MADRS score was reduced <50% from baseline and no lower than 17, and CGI-S≧4, were considered inadequate responders. These subjects (n=270) were randomized in a double-blind fashion to receive either placebo or TC-5214-23 as add-on therapy to continued CIT. The double-blind phase of the study also lasted 8 weeks (Week 8 to Week 16). Study drug, TC-5214-23 or placebo, was started at 2 mg daily (1 mg twice per day [BID] dosing), added on to continuing CIT (40 mg PO qd). After 2 weeks of treatment, the dose of TC-5214 could be increased to 4 mg (2 mg BID) or continued unchanged, with up-titration based upon good tolerability and inadequate therapeutic response. After a further 2 weeks, the dose of TC-5214 could be increased again to 8 mg (4 mg BID) if judged appropriate by the investigator, based upon good tolerability and inadequate therapeutic response. At any time during the double-blind phase of the study, placebo or TC-5214-23 could be reduced to the previous dose level following the emergence of unacceptable adverse events (AEs). […] At this follow-up, any signs or symptoms of relapse were evaluated. If a subject was prematurely discontinued from the study between Week 8 and Week 16 for any reason, the investigator was to make every effort to perform all evaluations as per protocol, assuming the subject had reached the end of the double-blind add-on treatment phase. These evaluations were to be made as soon as possible and within 2 weeks of discontinuation. […] There was no meaningful difference in results as a function of age, gender, site, or smoking status. The exploratory analysis assessed the differences in the treatment groups in change from Week 8 (double-blind baseline) to Week 16 for each individual MADRS factor score.
# [1] = ITT population, Week 8 (double-blind baseline) to Week 16
structure (smiles),measurement,setting,value
"CNC1(C)C2CCC(C2)C1(C)C (stereo in doubt) [TC-5214, (S)—N,2,3,3-tetramethylnorbornan-2-amine]",MADRS item 1 Apparent Sadness: Adjusted Mean Change TC-5214—Placebo (SD),[1],−0.88 (1.26)
same,MADRS item 1 Apparent Sadness: Effect Size,[1],0.70
same,MADRS item 2 Reported Sadness: Adjusted Mean Change TC-5214—Placebo (SD),[1],−0.88 (1.28)
same,MADRS item 2 Reported Sadness: Effect Size,[1],0.69
same,MADRS item 3 Inner Tension: Adjusted Mean Change TC-5214—Placebo (SD),[1],−0.79 (1.13)
same,MADRS item 3 Inner Tension: Effect Size,[1],0.70
same,MADRS item 4 Reduced Sleep: Adjusted Mean Change TC-5214—Placebo (SD),[1],−0.99 (1.40)
same,MADRS item 4 Reduced Sleep: Effect Size,[1],0.71
same,MADRS item 5 Reduced Appetite: Adjusted Mean Change TC-5214—Placebo (SD),[1],−0.76 (1.30)
same,MADRS item 5 Reduced Appetite: Effect Size,[1],0.58
same,MADRS item 6 Concentration Difficulties: Adjusted Mean Change TC-5214—Placebo (SD),[1],−0.70 (1.20)
same,MADRS item 6 Concentration Difficulties: Effect Size,[1],0.58
same,MADRS item 7 Lassitude: Adjusted Mean Change TC-5214—Placebo (SD),[1],−0.75 (1.20)
same,MADRS item 7 Lassitude: Effect Size,[1],0.63
same,MADRS item 8 Inability to Feel: Adjusted Mean Change TC-5214—Placebo (SD),[1],−0.76 (1.25)
same,MADRS item 8 Inability to Feel: Effect Size,[1],0.61
same,MADRS item 9 Pessimistic Thoughts: Adjusted Mean Change TC-5214—Placebo (SD),[1],−0.74 (1.18)
same,MADRS item 9 Pessimistic Thoughts: Effect Size,[1],0.63
same,MADRS item 10 Suicidal Thoughts: Adjusted Mean Change TC-5214—Placebo (SD),[1],−0.29 (0.61)
same,MADRS item 10 Suicidal Thoughts: Effect Size,[1],0.48
same,each MADRS subscale score change from baseline compared with placebo,"ITT, result in words",statistically significant decreases (improvements)
